Source: patent publication US11274106B2, “Topoisomerase inhibitors with antibacterial and anticancer activity” (THE BOARD OF TRUSTEES OF THE UNIVERSITY OF ILLINOIS, priority 2017, dated 2022)
Values after ≈ are worked out from the molar mass of the structure shown.

Experiments:
[1] = test system: MRSA; test: Antibacterial MIC, microbroth dilution, MRSA; format: cell-based, S. aureus; details: Staphylococcus aureus, MRSA; microbroth dilution
Experimental: To investigate this possibility, the antibacterial effects of the DNM derivatives was assessed against strains of E. coli, S. aureus, and MRSA using the microbroth dilution method (Table 2).

[2] = test system: ES-2; test: Antiproliferative SRB assay, ES-2; format: cell-based; details: Homo sapiens, ES-2, 72 h, Cervical cancer (footnote f), mean ± SEM
From the text: (§1) Topoisomerase inhibitors such as DOX are used as single agent and in combination therapy to treat a wide-range of cancer types.

[3] = test system: HL-60; test: Cell viability Alamar Blue assay, HL-60; format: cell-based; details: Homo sapiens, HL-60, 72 h, Leukemia, mean ± SEM
From the text: as §1

[4] = biological target: E. coli DNA Gyrase (Escherichia coli, UniProt P0AES4+P0AES6); test: E. coli DNA Gyrase supercoiling assay; format: biochemical
Sequence of E. coli DNA Gyrase (P0AES4 whole entry, one chain of several): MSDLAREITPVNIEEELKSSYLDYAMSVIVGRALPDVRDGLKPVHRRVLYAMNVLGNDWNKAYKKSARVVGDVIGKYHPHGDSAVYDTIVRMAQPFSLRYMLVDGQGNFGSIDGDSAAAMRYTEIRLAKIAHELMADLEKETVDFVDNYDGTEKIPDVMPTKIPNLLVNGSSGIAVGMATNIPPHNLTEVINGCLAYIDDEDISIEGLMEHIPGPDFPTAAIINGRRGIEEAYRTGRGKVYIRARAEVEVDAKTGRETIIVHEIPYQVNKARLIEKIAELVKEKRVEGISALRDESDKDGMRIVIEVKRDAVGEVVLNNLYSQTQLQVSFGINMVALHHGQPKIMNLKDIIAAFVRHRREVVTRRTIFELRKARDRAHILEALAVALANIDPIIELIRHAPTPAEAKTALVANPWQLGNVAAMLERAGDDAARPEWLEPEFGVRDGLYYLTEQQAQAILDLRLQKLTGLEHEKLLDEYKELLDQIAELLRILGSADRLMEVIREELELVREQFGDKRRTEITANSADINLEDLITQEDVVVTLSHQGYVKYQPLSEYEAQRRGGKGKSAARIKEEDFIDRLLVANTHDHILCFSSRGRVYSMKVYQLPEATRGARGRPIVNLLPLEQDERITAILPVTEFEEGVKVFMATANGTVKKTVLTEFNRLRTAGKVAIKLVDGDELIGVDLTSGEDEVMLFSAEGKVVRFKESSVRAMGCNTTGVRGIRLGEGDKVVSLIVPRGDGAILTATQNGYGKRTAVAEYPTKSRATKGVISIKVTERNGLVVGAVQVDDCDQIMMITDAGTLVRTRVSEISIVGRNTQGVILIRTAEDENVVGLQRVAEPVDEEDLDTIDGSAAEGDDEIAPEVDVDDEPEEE
From the text: (§2) FIG. 8. In vitro inhibitory activity of 6DNM-NH3, Ph-6DNM-NH3 against E. coli DNA gyrase and TopoIV.
(§3) DNM and its derivatives exert their antibacterial effects through inhibition of the DNA Gyrase.

[5] = biological target: E. coli TopoIV (Escherichia coli, UniProt P0AFI2+P20083); test: E. coli TopoIV decatenation assay; format: biochemical
Sequence of E. coli TopoIV (P0AFI2 whole entry): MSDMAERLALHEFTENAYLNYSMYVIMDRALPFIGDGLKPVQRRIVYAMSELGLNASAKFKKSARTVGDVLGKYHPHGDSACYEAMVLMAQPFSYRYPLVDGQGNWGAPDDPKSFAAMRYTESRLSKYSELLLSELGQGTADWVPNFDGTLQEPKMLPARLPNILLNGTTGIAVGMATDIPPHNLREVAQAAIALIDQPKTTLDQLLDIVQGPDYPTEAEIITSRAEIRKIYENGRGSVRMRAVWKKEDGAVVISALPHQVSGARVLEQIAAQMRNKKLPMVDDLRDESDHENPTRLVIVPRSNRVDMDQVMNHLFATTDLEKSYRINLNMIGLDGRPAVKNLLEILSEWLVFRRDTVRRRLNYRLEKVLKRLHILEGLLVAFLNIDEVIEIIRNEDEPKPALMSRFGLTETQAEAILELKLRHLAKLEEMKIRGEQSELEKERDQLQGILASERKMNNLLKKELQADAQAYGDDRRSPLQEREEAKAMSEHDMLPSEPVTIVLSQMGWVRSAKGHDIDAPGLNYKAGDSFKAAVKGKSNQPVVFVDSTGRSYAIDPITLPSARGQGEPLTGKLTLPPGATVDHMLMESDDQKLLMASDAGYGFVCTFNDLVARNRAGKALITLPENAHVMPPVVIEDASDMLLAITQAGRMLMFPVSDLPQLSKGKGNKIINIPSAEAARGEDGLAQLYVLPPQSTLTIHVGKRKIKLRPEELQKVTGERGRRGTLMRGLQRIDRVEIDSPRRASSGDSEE
Sequence of E. coli TopoIV (P20083 whole entry): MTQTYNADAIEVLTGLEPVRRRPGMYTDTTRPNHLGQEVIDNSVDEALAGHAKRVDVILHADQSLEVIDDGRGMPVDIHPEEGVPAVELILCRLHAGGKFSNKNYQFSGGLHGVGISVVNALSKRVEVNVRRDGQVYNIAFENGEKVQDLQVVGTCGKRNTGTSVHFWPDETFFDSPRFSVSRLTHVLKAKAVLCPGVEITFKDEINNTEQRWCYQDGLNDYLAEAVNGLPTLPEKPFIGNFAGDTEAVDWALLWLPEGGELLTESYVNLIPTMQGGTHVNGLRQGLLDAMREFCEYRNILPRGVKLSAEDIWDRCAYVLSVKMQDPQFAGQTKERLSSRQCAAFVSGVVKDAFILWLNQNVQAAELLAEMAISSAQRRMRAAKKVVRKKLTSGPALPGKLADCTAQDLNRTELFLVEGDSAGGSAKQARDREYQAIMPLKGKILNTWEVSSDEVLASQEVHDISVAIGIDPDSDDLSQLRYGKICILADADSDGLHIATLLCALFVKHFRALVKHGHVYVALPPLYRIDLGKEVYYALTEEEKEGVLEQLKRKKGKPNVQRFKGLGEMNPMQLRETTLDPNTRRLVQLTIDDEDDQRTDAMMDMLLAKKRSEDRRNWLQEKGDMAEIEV
From the text: as §2, §3

[6] = biological target: T1, Top1 (Homo sapiens, UniProt P11387); test: Top1 degradation by Western blot, BT-474; format: cell-based; details: 50 μM for 2, 4, and 6 hours, then 30-minute drug-free media
T1 sequence (P11387 1-765): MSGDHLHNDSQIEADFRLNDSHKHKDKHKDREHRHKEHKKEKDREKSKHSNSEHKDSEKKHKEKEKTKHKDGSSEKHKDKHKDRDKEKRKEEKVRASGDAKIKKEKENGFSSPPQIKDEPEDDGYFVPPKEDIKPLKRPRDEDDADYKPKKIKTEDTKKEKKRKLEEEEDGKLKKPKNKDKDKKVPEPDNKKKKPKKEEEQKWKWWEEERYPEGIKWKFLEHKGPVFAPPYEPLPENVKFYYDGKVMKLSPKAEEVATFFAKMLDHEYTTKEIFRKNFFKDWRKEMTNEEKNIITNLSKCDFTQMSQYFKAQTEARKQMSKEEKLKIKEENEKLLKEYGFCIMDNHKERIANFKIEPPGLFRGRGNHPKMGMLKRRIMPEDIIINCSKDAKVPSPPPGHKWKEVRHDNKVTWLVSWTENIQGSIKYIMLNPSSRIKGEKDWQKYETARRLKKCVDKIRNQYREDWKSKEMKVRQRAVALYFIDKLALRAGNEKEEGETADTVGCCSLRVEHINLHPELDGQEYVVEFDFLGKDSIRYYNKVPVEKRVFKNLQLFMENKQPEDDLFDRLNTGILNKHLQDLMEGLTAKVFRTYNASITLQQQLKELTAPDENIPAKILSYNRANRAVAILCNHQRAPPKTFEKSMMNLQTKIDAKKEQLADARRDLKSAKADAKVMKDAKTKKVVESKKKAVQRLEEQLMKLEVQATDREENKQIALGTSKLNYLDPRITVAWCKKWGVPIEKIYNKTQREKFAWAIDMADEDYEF
Experimental: FIG. 4. Level of Top1-degradation predicts cell line sensitivity. (a) Cells treated with 25 μM of compound for indicated times followed by a 30 minute incubation with drug-free media. Cells were lysed with RIPA and Top1 levels assessed by Western Blot. (b) Degradation of Top1 results in a right-ward shift in the dose-response curve. Effect is most pronounced in Top1-poisons (Ph-6DNM-NH3, CPT) than Top1 catalytic inhibitor (6DNM-Pyr). Cell death measured by SRB assay after 72 hour of compound exposure (n≥3 biological replicates, error bars show SEM).
This difference in mechanism of action between Ph-6DNM-NH3 and 6DNM-Pyr may provide an explanation of the differences in cell line sensitivities between the different DNM derivatives. […] This downregulation serves as a resistance mechanism and the level of Top1 degradation is correlated with reduced sensitivity to CPT. To determine if a similar mechanism is responsible for the reduced sensitivity to Ph-6DNM-NH3 and its derivatives in certain cell lines, the effects of Ph-6DNM-NH3 and 6DNM-Pyr were compared to that of CPT in […] and BT-474, two cancer cell lines known to be deficient and proficient in Top1 degradation, respectively. Cells were treated with 50 μM Ph-6DNM-NH3, 6DNM-Pyr, or CPT for 2, 4, and 6 hours. Following a 30-minute incubation with drug-free media to allow for the reversal of any Top1cc formed, cells were lysed and Top1 concentrations assessed by Western blot (FIG. 4a).

`Cc1cc(=O)n2c3c(c4c(cc13)c1ccccc1c(=O)n4C)OCC2CN` (stereo not drawn) [Compound 15] was tested, and the MIC [1] was 1 µg/mL (≈ 2.77 µM), the IC50 [2] was 28 ± 6 nM and the IC50 [3] was 470 ± 90 nM. For the same compound, the “Inhibition of purified E. coli DNA Gyrase” value [4] was “able to inhibit”, the “Inhibition of purified E. coli TopoIV” value [5] was “able to inhibit” and the “Top1 levels by Western blot in BT-474” value [6] was “time-dependent decrease in the levels of Top1”.
For `Cc1cc(=O)n(C)c2c3c4c(cc12)c(C)cc(=O)n4C(CN1CCCC1)CO3` (stereo not drawn) [Compound 20], the IC50 [2] was 17 ± 4 nM, the IC50 [3] was 48 ± 11 nM and the “Top1 levels by Western blot in BT-474” value [6] was “minimal effect”.
